Assay results: US20030130169A1, “Methods of treating drug-resistant bacterial infections” (priority 2001, published 2003)

What was measured:
[1] = system: RepA-LacZ (SLI-SLIII interaction of RepA mRNA), plasmid pMU1550; test: RepA-LacZ reporter gene assay; assay type: cell-based; conditions: E. coli JP3923 harboring pMU1550, various concentrations, OD600 ~0.6
Procedure: Small molecules were tested for their ability to imitate the function of RNA I by binding to the RepA mRNA and disrupting the Stem Loop I-Stem Loop III (SLI-SLIII) loop-loop interaction, thus mimicking plasmid incompatibility. Aminoglycosides and their derivatives were selected for testing because of their ability to tightly bind RNA from a variety of sources, particularly regions of distorted RNA secondary structure, such as RNA loops or bulges.
To assess their ability to disrupt the SLI-SLIII interaction in vivo, small molecules were assessed using a RepA-LacZ reporter gene assay. To conduct the assay, the gene encoding β-galactosidase was fused to the RepA gene, incorporated into commercially available plasmid pMU1550. E. coli JP3923 harboring plasmid pMU1550 was grown in minimal media (MM)/Tm([…]) in the presence of various concentrations of the small molecules under evaluation. After reaching the appropriate optical density (˜OD600=0.6), Miller units of b-galactosidase were quantitated as per the standard protocol (see Miller, J. H, Experiments in Molecular Genetics, 1972, p352-355, Cold Spring Harbor Laboratory, Cold Spring Harbor, N.Y.). Any perturbation causing lower RepA production leads to a lowering of the β-galactosidase units upon quantitation A positive control utilizing a plasmid (pMU662) that overexpresses RNAII (containing the SLI-SLIII stretch) gave the expected high b-galactosidase signal. Each experiment was performed on at least three separate occasions.
In a second control, erythromycin A, a general translation inhibitor, was tested using the reporter gene assay.
These experiments gave the expected results.

[2] = system: plasmids differing in copy numbers, size and nature of replication; conditions: cited from earlier work
[3] = system: SLIII; test: Direct binding to fluorescein-labeled RNA (fluorescence titration); conditions: various apramycin concentrations
Procedure: (§1) The direct binding of apramycin to SLI and SLIII was then assessed in vitro using fluorescently-labeled RNAs.
(§2) For these experiments, RNA oligonucleotides were obtained from Dharmacon Research (Lafayette, Colo.), and were deprotected according to the manufacturer's protocol. The sequence of FI-SLI is FI.C.G.CCA.UAA.GCG.ACA.GCU.UGU.GGC. The sequence of FI-SLIII is FI.UAU.UUU.UCC.UCG.AAC.UUG.GCG.GAA.CGC.AGA.AAA.AUA. All fluorescence measurements were performed on an ISS PC1 spectrofluorometer with slitwidths and lamp current optimized for sufficient signal counts at the given RNA-fluorescein concentration. Deprotected RNA oligonucleotides were made up to 1 mM in 50 mM Tris-HCl, pH 7.3, and folded by heating to 90° C. for 3 min, then slowly cooling to rt. To assess the binding of apramycin to the fluorescently-labeled RNAs, […] of the folded RNA was transferred to a 4×10×48 mm fluorescence cuvette (Starna Cells) and allowed to equilibrate to 37° C. in the spectrofluorometer's sample chamber for 15 minutes. Apramycin was added in […] portions from a stock solution, and a minimum of 5 minutes was allotted for equilibration. Three fluorescence spectra were acquired at each apramycin concentration. The spectra were taken with a 490 nm excitation wavelength and emission intensity was measured from 510-540 nm at an interval of one nanometer. At each point along the spectrum, an average of 3 data points was taken to give an averaged intensity at that integral wavelength. In processing the spectra, the point at 523 nm was chosen as a representative wavelength to monitor change in intensity over a range of apramycin concentrations. The 523 nm data points from each of the three averaged spectra were averaged at each apramycin concentration to give a composite average of nine measurements at 523 nm at each apramycin concentration. All intensity measurements are reported uncorrected for dilutions, as volume change over the course of the experiment is minimal.

[4] = molecular target: SLI; test: as above
Procedure: as §1, §2

[5] = system: IncB plasmid pMU2403 encoding β-lactamase; test: Assessment of plasmid elimination (master/replica plating); assay type: cell-based, E. coli strain JP4821; conditions: 25 μg/mL apramycin
Procedure: The anti-plasmid effect of apramycin, paromomycin I and kanamycin B was assessed. In general, plasmid-containing E. coli resistant to ampicillin were cultured using growth media containing subinhibitory (sublethal) amounts of each of these compounds. The bacteria were allowed to reproduce for a defined number of generations, after which the bacteria were plated out onto agar plates containing the tested small molecules. Replicas were then made onto plates containing the tested small molecules and the antibiotic, ampicillin. Colonies that appeared on the master plate, but not the replicas had been rendered sensitive to ampicillin
In particular, E. coli strain JP4821 containing the commercially available IncB plasmid pMU2403, which encodes for β-lactamase, was grown in MM in the presence of 25 μg/mL apramycin for a defined number of generations. Typically, samples of the bacteria were plated out onto LB/Apra^25 plates after 10-12 generations, and replica plates were then made onto LB/Apra^25/Amp^100 plates. Percentage of plasmid lost was calculated by counting the number of colonies successfully replicated and dividing by the total number of colonies on the master plate; the entire plasmid loss assay was performed on two separate occasions. On average, greater than 200 master plate colonies were used for each of these evaluations. Evaluations of paromomycin I and kanamycin B were performed in an analogous fashion, with paromomycin I at 15 mg/mL, and kanamycin B at 10 mg/mL.
To confirm that antibiotic sensitivity was due to plasmid loss, plasmid preparations were performed to isolate plasmid from the non-replicating colonies on the master plate, and from control colonies. No plasmids were isolated from the non-replicating colonies, while plasmid was successfully isolated from the control colonies that did replicate.

[6] = molecular target: SLI-SLIII loop-loop complex; test: In vitro SLI-SLIII loop-loop disruption assay (displacement of fluorescein-labeled SLIII from bead-bound SLI); assay type: binding; conditions: biotinylated SLI on streptavidin agarose bead, fluorescein-labeled SLIII displaced; read-out: Kd for disrupting the SLI-SLIII interaction
Procedure: To further investigate the mechanism by which apramycin causes plasmid elimination, the SLI-SLIII loop-loop interaction was reconstituted in vitro. SLI was biotinylated and bound to a streptavidin coated agarose bead. Fluorescein-labeled SLIII was added to form the loop-loop complex. This complex was then incubated with varous concentrations of apramycin and the amount of SLIII displaced by apramycin was assessed by quantitation of the fluorescence in solution. These experiments indicate that apramycin is disrupting the SLI-SLIII interaction with a Kd of 1 μM.

Structure (SMILES): CC[C@H]1OC(=O)[C@H](C)[C@@H](O[C@H]2C[C@@](C)(OC)[C@@H](O)[C@H](C)O2)[C@H](C)[C@@H](O[C@@H]2O[C@H](C)C[C@H](N(C)C)[C@H]2O)[C@](C)(O)C[C@@H](C)C(=O)[C@H](C)[C@@H](O)[C@]1(C)O [Erythromycin A, erythromycin A]
- reporter gene signal (Miller units of β-galactosidase) [1]: no effect

Structure (SMILES): N[C@@H]1[C@H]2CN(c3nc4c(cc3F)c(=O)c(C(=O)O)cn4-c3ccc(F)cc3F)C[C@@H]12 [Trovafloxacin]
- plasmid curing effect [2]: plasmid curing

Structure (SMILES): CN[C@@H]1[C@@H](O[C@H]2O[C@H](CO)[C@@H](N)[C@H](O)[C@H]2O)OC2C[C@@H](N)[C@@H](O[C@H]3[C@H](O)[C@@H](O)[C@H](N)C[C@@H]3N)OC2[C@@H]1O (stereo partly drawn) [apramycin]
- change in fluorescence of labeled SLIII [3]: no significant change in fluorescence
- Kd ([4]; 50 mM Tris-HCl pH 7.3, 37° C., read-out: Kd of apramycin-SLI interaction): 200 nM
- change in fluorescent signal of labeled SLI ([4]; various apramycin concentrations): significant decrease
- plasmid elimination ([5]; after 220 generations): virtually complete elimination
- plasmid elimination ([5]; overall conclusion): virtually complete elimination of plasmid
- sensitization of bacteria to ampicillin ([5]; replica plates LB/Apra25/Amp100): sensitizes the bacteria to ampicillin
- Kd [6]: 1000 nM
- reporter gene signal (Miller units of β-galactosidase) [1]: dose dependent decrease

Structure (SMILES): NC[C@H]1O[C@H](O[C@H]2[C@H](O)[C@@H](O[C@H]3O[C@H](CO)[C@@H](O)[C@H](N)[C@H]3O)[C@H](N)C[C@@H]2N)[C@H](N)[C@@H](O)[C@@H]1O [kanamycin B]
- reporter gene signal (Miller units of β-galactosidase) [1]: dose dependent decrease

Structure (SMILES): NC[C@@H]1O[C@H](O[C@H]2[C@@H](O)[C@H](O[C@@H]3[C@@H](O)[C@H](N)C[C@H](N)[C@H]3O[C@H]3O[C@H](CO)[C@@H](O)[C@H](O)[C@H]3N)O[C@@H]2CO)[C@H](N)[C@@H](O)[C@@H]1O [paromomycin I]
- reporter gene signal (Miller units of β-galactosidase) [1]: dose dependent decrease
